Results taken from patent US8883745B2, “C—glycolipids with enhanced Th-1 profile” (New York University, priority 2006, dated 2014).

Experiments:
Assay type in all cases: in vivo
IFN-γ [1] = experiment: IFN-γ levels in sera upon i.v. glycolipid administration to BALB/c mice (ELISA); set-up: IFN-γ levels, test 1 / IFN-γ levels, test 2 / IFN-γ levels, average / IFN-γ levels, Total: unit not given here
Procedure: (§1) Five- to six-week-old female C57BL/6 mice and BALB/c mice were purchased from Taconic. Each glycolipid was stored at 1 mg/ml in 100% DMSO. Mice were injected intravenously with 1 μg of each glyocolipid diluted in 200 μL sterile phosphate buffered saline (PBS). At indicated time points, sera were collected from each animal, and concentrations of IFN-γ, IL-4, and IL-12 in the sera were evaluated by enzyme-linked immunosorbent assay (ELISA). Serum concentrations of IFN-γ, IL-4, and IL-12 were evaluated using an ELISA kit (eBioscience, San Diego, Calif.). Briefly, 96 well flat-bottom ELISA plates (NUNC) were coated with capture antibody according to the manufacture's recommendation and incubated overnight at 4° C. The plates were washed with PBS+0.05% Tween 20 (PBS-T), then incubated with manufacturer provided blocking solution for 1 hr at room temperature to block non-specific binding sites. After washing with PBS-T, sera diluted 1:10 was added to the wells and incubated for 2 hrs at room temperature. Plates were then incubated at room temperature for 1 hr with biotintylated detection antibody, washed, incubated with avidin conjugated to horse radish peroxidase (HRP) for 30 min at room temperature, washed, and finally incubated with tetramethylbenzidine substrate solution in the dark for 10 minutes at room temperature. The antibodies, avidin-HRP, and substrate solution were all diluted according to the manufacture's recommendation. Reactions were stopped with 2.0N sulfuric acid and the cytokine concentration in each well was determined by comparing the absorbance at 450 nm in each well to known standards. The levels of Th1- and Th2-type cytokines were determined in two different genetic backgrounds, i.e., in C57BL/6 mice and BALB/c mice. The following compounds were administered: A=compound (A-1 trans-conformer), B=compound (A-2), C=compound (A-3), D=compound (A-4), E=compound (A-5), Z=control (PBS alone), CRONY=α-C-GalCer, KRN=α-GalCer, GCK109 (A-1 trans-conformer), GCK151 (A-1 cis-conformer), GCK152 (A-7). The levels of cytokines were measured at 0, 2, 6, 12, 24, 48, and 72 hours after the compound administration. The levels of Th1-type cytokines IFN-γ and IL-12 are summarized in FIGS. 2A-C and 3A-C, respectively. Table 7 provides IFN-γ/IL-4 and IL-12/IL-4 ratios for various compounds, which can be used as indicators of their ability to selectively stimulate Th1-type immune responses.

IFN-γ [2] = experiment: IFN-γ levels in sera upon i.v. glycolipid administration to C57BL/6 mice (ELISA); set-up: IFN-γ levels, test 1 / IFN-γ levels, test 2 / IFN-γ levels, average / IFN-γ levels, Total / IFN-γ (B6): unit not given here
Procedure: as §1

IL-12 = IL-12 levels in sera upon i.v. glycolipid administration to C57BL/6 mice (ELISA); set-up: IL-12 levels, test 1 / IL-12 levels, test 2 / IL-12 levels, average / IL-12 levels, Total: unit not given here
Procedure: as §1

IL-4 = IL-4 levels in sera upon i.v. glycolipid administration to BALB/c mice (ELISA); set-up: unit not given here
Procedure: as §1

[3] = C57BL/6, ratio calculated from Tables 1-6
[4] = C57BL/6, serum, total over hours 0-72

CCCCCCCCCCCCCCCCCC/C=C/CCCCCCCCC(=O)N[C@@H](/C=C/[C@H]1O[C@H](CO)[C@H](O)[C@H](O)[C@H]1O)[C@H](O)[C@H](O)CCCCCCCCCCCCCC [A-1]
IFN-γ/IL-4 (BALB/c) (IFN-γ [1]; BALB/c, ratio calculated from Tables 1-6): 37
IFN-γ levels, average (IFN-γ [1]; BALB/c, serum, hour 0): 27
IFN-γ levels, test 1 (IFN-γ [1]; BALB/c, serum, hour 0): 27
IFN-γ levels, test 2 (IFN-γ [1]; BALB/c, serum, hour 0): 27
IFN-γ levels, average (IFN-γ [1]; BALB/c, serum, hour 2): 303
IFN-γ levels, test 1 (IFN-γ [1]; BALB/c, serum, hour 2): 373
IFN-γ levels, test 2 (IFN-γ [1]; BALB/c, serum, hour 2): 233
IFN-γ levels, average (IFN-γ [1]; BALB/c, serum, hour 6): 3990.5
IFN-γ levels, test 1 (IFN-γ [1]; BALB/c, serum, hour 6): 2814
IFN-γ levels, test 2 (IFN-γ [1]; BALB/c, serum, hour 6): 5167
IFN-γ levels, average (IFN-γ [1]; BALB/c, serum, hour 12): 5514
IFN-γ levels, test 1 (IFN-γ [1]; BALB/c, serum, hour 12): 4881
IFN-γ levels, test 2 (IFN-γ [1]; BALB/c, serum, hour 12): 6147
IFN-γ levels, average (IFN-γ [1]; BALB/c, serum, hour 24): 15250
IFN-γ levels, test 1 (IFN-γ [1]; BALB/c, serum, hour 24): 16100
IFN-γ levels, test 2 (IFN-γ [1]; BALB/c, serum, hour 24): 14400
IFN-γ levels, average (IFN-γ [1]; BALB/c, serum, hour 48): 484.5
IFN-γ levels, test 1 (IFN-γ [1]; BALB/c, serum, hour 48): 441
IFN-γ levels, test 2 (IFN-γ [1]; BALB/c, serum, hour 48): 528
IFN-γ levels, average (IFN-γ [1]; BALB/c, serum, hour 72): 62.5
IFN-γ levels, test 1 (IFN-γ [1]; BALB/c, serum, hour 72): 62
IFN-γ levels, test 2 (IFN-γ [1]; BALB/c, serum, hour 72): 63
IFN-γ levels, Total (IFN-γ [1]; BALB/c, serum, total over hours 0-72): 25633
effect: higher/extended IFN-γ and IL-12 with much lower IL-4 compared to α-GalCer (KRN) (IFN-γ [1]; C57BL/6 and BALB/c mice, 1 μg i.v.): particularly pronounced
IFN-γ/IL-4 (B6) (IFN-γ [2]; [3]): 12
IFN-γ levels, average (IFN-γ [2]; C57BL/6, serum, hour 0): 31
IFN-γ levels, test 1 (IFN-γ [2]; C57BL/6, serum, hour 0): 31
IFN-γ levels, test 2 (IFN-γ [2]; C57BL/6, serum, hour 0): 31
IFN-γ levels, average (IFN-γ [2]; C57BL/6, serum, hour 2): 281
IFN-γ levels, test 1 (IFN-γ [2]; C57BL/6, serum, hour 2): 226
IFN-γ levels, test 2 (IFN-γ [2]; C57BL/6, serum, hour 2): 336
IFN-γ levels, average (IFN-γ [2]; C57BL/6, serum, hour 6): 1147.5
IFN-γ levels, test 1 (IFN-γ [2]; C57BL/6, serum, hour 6): 1172
IFN-γ levels, test 2 (IFN-γ [2]; C57BL/6, serum, hour 6): 1123
IFN-γ levels, average (IFN-γ [2]; C57BL/6, serum, hour 12): 4323
IFN-γ levels, test 1 (IFN-γ [2]; C57BL/6, serum, hour 12): 4093
IFN-γ levels, test 2 (IFN-γ [2]; C57BL/6, serum, hour 12): 4553
IFN-γ levels, average (IFN-γ [2]; C57BL/6, serum, hour 24): 11150
IFN-γ levels, test 1 (IFN-γ [2]; C57BL/6, serum, hour 24): 10000
IFN-γ levels, test 2 (IFN-γ [2]; C57BL/6, serum, hour 24): 12300
IFN-γ levels, average (IFN-γ [2]; C57BL/6, serum, hour 48): 400.5
IFN-γ levels, test 1 (IFN-γ [2]; C57BL/6, serum, hour 48): 366
IFN-γ levels, test 2 (IFN-γ [2]; C57BL/6, serum, hour 48): 435
IFN-γ levels, average (IFN-γ [2]; C57BL/6, serum, hour 72): 151
IFN-γ levels, test 1 (IFN-γ [2]; C57BL/6, serum, hour 72): 124
IFN-γ levels, test 2 (IFN-γ [2]; C57BL/6, serum, hour 72): 178
IFN-γ levels, Total (IFN-γ [2]; [4]): 17485
IL-12/IL-4 (B6) (IL-12; [3]): 2.9
IL-12 levels, average (IL-12; C57BL/6, serum, hour 0): 5
IL-12 levels, test 1 (IL-12; C57BL/6, serum, hour 0): 5
IL-12 levels, test 2 (IL-12; C57BL/6, serum, hour 0): 5
IL-12 levels, average (IL-12; C57BL/6, serum, hour 2): 20
IL-12 levels, test 1 (IL-12; C57BL/6, serum, hour 2): 40
IL-12 levels, test 2 (IL-12; C57BL/6, serum, hour 2): 0
IL-12 levels, average (IL-12; C57BL/6, serum, hour 6): 2181.5
IL-12 levels, test 1 (IL-12; C57BL/6, serum, hour 6): 1993
IL-12 levels, test 2 (IL-12; C57BL/6, serum, hour 6): 2370
IL-12 levels, average (IL-12; C57BL/6, serum, hour 12): 2071
IL-12 levels, test 1 (IL-12; C57BL/6, serum, hour 12): 1790
IL-12 levels, test 2 (IL-12; C57BL/6, serum, hour 12): 2352
IL-12 levels, average (IL-12; C57BL/6, serum, hour 24): 54
IL-12 levels, test 1 (IL-12; C57BL/6, serum, hour 24): 30
IL-12 levels, test 2 (IL-12; C57BL/6, serum, hour 24): 78
IL-12 levels, average (IL-12; C57BL/6, serum, hour 48): 0
IL-12 levels, test 1 (IL-12; C57BL/6, serum, hour 48): 0
IL-12 levels, test 2 (IL-12; C57BL/6, serum, hour 48): 0
IL-12 levels, average (IL-12; C57BL/6, serum, hour 72): 0
IL-12 levels, test 1 (IL-12; C57BL/6, serum, hour 72): 0
IL-12 levels, test 2 (IL-12; C57BL/6, serum, hour 72): 0
IL-12 levels, Total (IL-12; [4]): 4332
IL-4 level, average (IL-4; hour 0): 27
IL-4 level, test 1 (IL-4; hour 0): 27
IL-4 level, test 2 (IL-4; hour 0): 27
IL-4 level, average (IL-4; hour 2): 431.5
IL-4 level, test 1 (IL-4; hour 2): 358
IL-4 level, test 2 (IL-4; hour 2): 505
IL-4 level, average (IL-4; hour 6): 95.5
IL-4 level, test 1 (IL-4; hour 6): 85
IL-4 level, test 2 (IL-4; hour 6): 106
IL-4 level, average (IL-4; hour 12): 51
IL-4 level, test 1 (IL-4; hour 12): 52
IL-4 level, test 2 (IL-4; hour 12): 50
IL-4 level, average (IL-4; hour 24): 41.5
IL-4 level, test 1 (IL-4; hour 24): 40
IL-4 level, test 2 (IL-4; hour 24): 43
IL-4 level, average (IL-4; hour 48): 44
IL-4 level, test 1 (IL-4; hour 48): 46
IL-4 level, test 2 (IL-4; hour 48): 42
IL-4 level, average (IL-4; hour 72): 4
IL-4 level, test 1 (IL-4; hour 72): 4
IL-4 level, test 2 (IL-4; hour 72): 4
IL-4 level, Total (IL-4; total over hours 0-72): 696
